Tests used:
Type in all cases: cell-based
Settings in all cases: after 10, 20, 40 and 60 min at all dilutions 1:100, 1:200, 1:400, 1:800
Escherichia coli = assay: Antimicrobial testing by agar dilution, Escherichia coli
Protocol: (§1) The antimicrobial properties of the 4,5-bis(4-bromophenyl)-1-hexyl-2-(3-Pyridyl)-1H-imidazole (5) were studied by the method of agar dilution. Test solutions of each compound were prepared in concentration of 1% using dimethylformamide as a solvent then they are diluted in physiological solution to obtain the final experimental dilutions 1:100, 1:200, 1:400, 1:800. The effect of these substances were compared with furacillin in a controllable study. The testing microbes used were gram positive bacteria Staphylococcus aureus, gram negative bacteria Escherichia coli, Pseudomonas aeruginosa and Candida albicans fungi were taken. The experiments used for this survey were meat-pentonlu agar (EPA) for cultivation of bacteria and Saburo environment for fungi. Each experiment used 1 ml of test solution on each plate 500 min. Add 2 drops of emulsified with microbes feel. All experimental samples were taken from the agar after 10, 20, 40, 60 minutes in the environment on the basis of Patrk planted. Bacteria were cultivated at a temperature of 37° C. for 1 day and the mushroom was kept in a thermostat for […] at a temperature of 28° C. in the. Then results were checked.

Candida albicans = assay: Antimicrobial testing by agar dilution, Candida albicans
Protocol: as §1

Pseudomonas aeruginosa = assay: Antimicrobial testing by agar dilution, Pseudomonas aeruginosa
Protocol: as §1

Staphylococcus aureus = assay: Antimicrobial testing by agar dilution, Staphylococcus aureus
Protocol: as §1

Measured: inhibition activity (in words)

CCCCCCn1c(-c2cccnc2)nc(-c2ccc(Br)cc2)c1-c1ccc(Br)cc1 [4,5-bis(4-bromophenyl)-1-hexyl-2-(3-pyridyl)-1H-imidazole]
highest inhibition activity: all assays above
